From ChEMBL document CHEMBL2177083, “Enhanced in vitro biological activity of synthetic 2-(2-pyridyl) ethyl isothiocyanate compared to natural 4-(methylsulfinyl) butyl isothiocyanate” (J Med Chem, 2012)
Active and inactive are the calls of the source. No cut-off for these calls is given here.

How the values were obtained:
[1] = Induction of p21 protein expression in human PNT1A cells at 50 uM incubated for 8 hrs by Western blotting; type: cell-based
PC-3 [2] = experiment: Induction of p21 protein expression in human PC3 cells at 50 uM incubated for 8 hrs by Western blotting relative to untreated control; type: functional, cell-based
PC-3 [3] = experiment: Increase in chronic myeloid leukemia related gene expression in human PC3 cells at 10 uM incubated for 8 hrs by Affymetrix human exon array relative to untreated control; type: functional
[4] = Induction of p21 protein expression in human PNT1A cells at 10 uM incubated for 8 hrs by Western blotting; type: cell-based
PC-3 [5] = experiment: Inhibition of cell proliferation of human PC3 cells at 10 uM incubated for 24 hrs by BrdU incorporation assay; type: functional; conditions: PC-3, 24 h
PNT1A [6] = experiment: Increase in glutathione metabolism related gene expression in human PNT1A cells at 10 uM incubated for 8 hrs by Affymetrix human exon array relative to untreated control; type: functional
PC-3 [7] = experiment: Increase in alanine and aspartate metabolism related gene expression in human PC3 cells at 10 uM incubated for 8 hrs by Affymetrix human exon array relative to untreated control; type: functional
PC-3 [8] = experiment: Increase in glycolysis/gluconeogenesis related gene expression in human PC3 cells at 10 uM incubated for 8 hrs by Affymetrix human exon array relative to untreated control; type: functional
PC-3 [9] = experiment: Increase in epithelial cell signaling in Helicobacter pylori infection related gene expression in human PC3 cells at 10 uM incubated for 8 hrs pre-treated for 1 hr with 50 uM PI3K inhibitor LY294002 by Affymetrix human exon array relative to untreated control; type: functional
PC-3 [10] = experiment: Increase in glioma related gene expression in human PC3 cells at 10 uM incubated for 8 hrs by Affymetrix human exon array relative to untreated control; type: functional
[11] = Antiproliferative activity against human PNT1A cells at 50 uM incubated for 24 hrs by BrdU incorporation assay; type: cell-based
PNT1A [12] = experiment: Increase in apoptosis related gene expression in human PNT1A cells at 10 uM incubated for 8 hrs by Affymetrix human exon array relative to untreated control; type: functional
[13] = Binding affinity to insulin A chain N-terminal pentapeptide assessed as compound-insulin adduct formation by LC-MS method
PC-3 [14] = experiment: Increase in lysine degradation related gene expression in human PC3 cells at 10 uM incubated for 8 hrs by Affymetrix human exon array relative to untreated control; type: functional
PNT1A [15] = experiment: Increase in axon guidance related gene expression in human PNT1A cells at 10 uM incubated for 8 hrs by Affymetrix human exon array relative to untreated control; type: functional
PNT1A [16] = experiment: Increase in systemic lupus erythematosus related gene expression in human PNT1A cells at 10 uM incubated for 8 hrs by Affymetrix human exon array relative to untreated control; type: functional
PC-3 [17] = experiment: Increase in apoptosis gene expression in human PC3 cells at 10 uM incubated for 8 hrs by Affymetrix human exon array relative to untreated control; type: functional
PC-3 [18] = experiment: Increase in cell cycle related gene expression in human PC3 cells at 10 uM incubated for 8 hrs by Affymetrix human exon array relative to untreated control; type: functional
PNT1A [19] = experiment: Increase in glycine, serine, and threonine metabolism related gene expression in human PNT1A cells at 10 uM incubated for 8 hrs by Affymetrix human exon array relative to untreated control; type: functional
PC-3 [20] = experiment: Increase in base excision repair related gene expression in human PC3 cells at 10 uM incubated for 8 hrs by Affymetrix human exon array relative to untreated control; type: functional
PC-3 [21] = experiment: Increase in systemic lupus erythematosus related gene expression in human PC3 cells at 10 uM incubated for 8 hrs by Affymetrix human exon array relative to untreated control; type: functional
HepG2 = experiment: Cytotoxicity against human HepG2 cells incubated for 24 hrs by WST1 dye reduction assay; conditions: HepG2, 24 h
PC-3 [22] = experiment: Increase in small cell lung cancer related gene expression in human PC3 cells at 10 uM incubated for 8 hrs by Affymetrix human exon array relative to untreated control; type: functional
PC-3 [23] = experiment: Increase in ErbB signaling pathway related gene expression in human PC3 cells at 10 uM incubated for 8 hrs by Affymetrix human exon array relative to untreated control; type: functional
PC-3 [24] = experiment: Increase in aminoacyl-tRNA biosynthesis related gene expression in human PC3 cells at 10 uM incubated for 8 hrs by Affymetrix human exon array relative to untreated control; type: functional
PC-3 [25] = experiment: Increase in nucleotide excision repair related gene expression in human PC3 cells at 10 uM incubated for 8 hrs by Affymetrix human exon array relative to untreated control; type: functional
PC-3 [26] = experiment: Cytotoxicity against human PC3 cells incubated for 24 hrs by WST1 dye reduction assay; conditions: PC-3, 24 h
PC-3 [27] = experiment: Increase in p53 signaling pathway related gene expression in human PC3 cells at 10 uM incubated for 8 hrs by Affymetrix human exon array relative to untreated control; type: functional
PC-3 [28] = experiment: Increase in prostate cancer related gene expression in human PC3 cells at 10 uM incubated for 8 hrs by Affymetrix human exon array relative to untreated control; type: functional
PC-3 [29] = experiment: Increase in ABC transporters related gene expression in human PC3 cells at 10 uM incubated for 8 hrs by Affymetrix human exon array relative to untreated control; type: functional
PC-3 [30] = experiment: Induction of p21 protein expression in human PC3 cells at 10 uM incubated for 8 hrs by Western blotting in presence of 50 uM PI3K inhibitor LY294002 relative to untreated control; type: functional
PC-3 [31] = experiment: Increase in one carbon pool by folate related gene expression in human PC3 cells at 10 uM incubated for 8 hrs by Affymetrix human exon array relative to untreated control; type: functional
PC-3 [32] = experiment: Increase in TGF-beta signaling pathway related gene expression in human PC3 cells at 10 uM incubated for 8 hrs by Affymetrix human exon array relative to untreated control; type: functional
PC-3 [33] = experiment: Increase in colorectal cancer related gene expression in human PC3 cells at 10 uM incubated for 8 hrs by Affymetrix human exon array relative to untreated control; type: functional
[34] = Binding affinity to insulin B chain N-terminal pentapeptide assessed as compound-insulin adduct formation by LC-MS method
PC-3 [35] = experiment: Increase in DNA replication related gene expression in human PC3 cells at 10 uM incubated for 8 hrs by Affymetrix human exon array relative to untreated control; type: functional
PC-3 [36] = experiment: Increase in homologous recombination related gene expression in human PC3 cells at 10 uM incubated for 8 hrs by Affymetrix human exon array relative to untreated control; type: functional
PC-3 [37] = experiment: Increase in mismatch repair related gene expression in human PC3 cells at 10 uM incubated for 8 hrs by Affymetrix human exon array relative to untreated control; type: functional
DU-145 = experiment: Cytotoxicity against human DU145 cells incubated for 24 hrs by WST1 dye reduction assay; conditions: DU-145, 24 h
PC-3 [38] = experiment: Increase in pyrimidine metabolism related gene expression in human PC3 cells at 10 uM incubated for 8 hrs by Affymetrix human exon array relative to untreated control; type: functional
Caco-2 = experiment: Cytotoxicity against human Caco2 cells incubated for 24 hrs by WST1 dye reduction assay; conditions: Caco-2, 24 h
PNT1A [39] = experiment: Increase in cytokine-cytokine receptor interaction related gene expression in human PNT1A cells at 10 uM incubated for 8 hrs by Affymetrix human exon array relative to untreated control; type: functional
PC-3 [40] = conditions: Homo sapiens, 25 uM
Description: Inhibition of cell proliferation of human PC3 cells at 25 uM incubated for 24 hrs by BrdU incorporation assay

O=c1cc(N2CCOCC2)oc2c(-c3ccccc3)cccc12 [LY-294002]
Activity [1]: Toxic
Activity (PC-3 [2]): Active

S=C=NCCc1ccccn1
fold change (FC) (PC-3 [3]): 1.9
Activity [4]: Non-toxic
inhibition at 10 µM (PC-3 [5]): > 80%
fold change (FC) (PNT1A [6]): 2.8
fold change (FC) (PC-3 [7]): 2
fold change (FC) (PC-3 [8]): 1.6
fold change (FC) (PC-3 [9]): 1.6
fold change (FC) (PC-3 [10]): 1.9
Activity [11]: Non-toxic
fold change (FC) (PNT1A [12]): 2.5
Activity [13]: Active
fold change (FC) (PC-3 [14]): 1.8
fold change (FC) (PNT1A [15]): 1.9
fold change (FC) (PNT1A [16]): 3.6
fold change (FC) (PC-3 [17]): 1.9
fold change (FC) (PC-3 [18]): 2.6
fold change (FC) (PNT1A [19]): 3.1
fold change (FC) (PC-3 [20]): 2.1
fold change (FC) (PC-3 [21]): 1.8
IC50 (HepG2): 15.3 µM
fold change (FC) (PC-3 [22]): 1.6
fold change (FC) (PC-3 [23]): 1.6
fold change (FC) (PC-3 [24]): 1.8
fold change (FC) (PC-3 [25]): 1.8
IC50 (PC-3 [26]): 12.8 µM
fold change (FC) (PC-3 [27]): 2.1
fold change (FC) (PC-3 [28]): 1.9
fold change (FC) (PC-3 [29]): 1.6
fold change (FC) (PC-3 [30]): 8
fold change (FC) (PC-3 [31]): 2.8
fold change (FC) (PC-3 [32]): 1.5
fold change (FC) (PC-3 [33]): 1.5
Activity [34]: Active
fold change (FC) (PC-3 [35]): 3.1
fold change (FC) (PC-3 [36]): 2.4
fold change (FC) (PC-3 [37]): 2.6
IC50 (DU-145): 4.44 µM
fold change (FC) (PC-3 [38]): 1.6
IC50 (Caco-2): 15.2 µM

C[S+]([O-])CCCCN=C=S (stereo not drawn) [SULFORAPHANE]
fold change (FC) (PNT1A [39]): 3.3
Activity [4]: Non-toxic
inhibition (PC-3 [40]): Active
Activity [11]: Non-toxic
fold change (FC) (PNT1A [12]): 4.8
Activity [13]: Active
fold change (FC) (PNT1A [16]): 4.3
IC50 (HepG2): 24.9 µM
IC50 (PC-3 [26]): 32.4 µM
Activity [34]: Active
IC50 (DU-145): 13.8 µM
IC50 (Caco-2): 79.8 µM
